Experimental findings from patent publication US20250243160A1, “INDOLE DERIVATIVES FOR TARGETING AUTOPHAGY” (Automera PTE. LTD, priority 2024, published 2025) are described below.

For the first assay, the target named is T1, p62 oligomers (Homo sapiens, UniProt Q13501).
T1 construct: endogenous in cells; host or cells: HeLa
T1 sequence (Q13501 whole entry): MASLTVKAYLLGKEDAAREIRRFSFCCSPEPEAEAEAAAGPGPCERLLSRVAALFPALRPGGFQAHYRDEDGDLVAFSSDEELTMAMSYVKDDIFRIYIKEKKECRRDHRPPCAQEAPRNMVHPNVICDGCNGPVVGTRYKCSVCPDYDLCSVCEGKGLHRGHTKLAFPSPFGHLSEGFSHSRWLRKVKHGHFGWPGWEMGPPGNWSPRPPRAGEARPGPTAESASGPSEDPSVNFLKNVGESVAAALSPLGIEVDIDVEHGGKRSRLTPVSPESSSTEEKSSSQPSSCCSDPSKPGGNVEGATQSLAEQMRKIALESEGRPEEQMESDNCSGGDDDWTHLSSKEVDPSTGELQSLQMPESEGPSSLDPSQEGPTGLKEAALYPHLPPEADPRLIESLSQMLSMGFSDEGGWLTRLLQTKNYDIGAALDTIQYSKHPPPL
As to the kind of experiment: p62 oligomerization assay by Western blot in HeLa cells. The format is cell-based. The settings on record: 24 hours treatment, relative to vehicle control (DMSO). The procedure:
HeLa cells were seeded in 6-well plates (700,000 cells) and allowed to adhere overnight. Media was replaced one hour before administering either vehicle (DMSO) or test compounds. After 24 hours of treatment, the media was discarded, and cells were rinsed once with ice-cold 1×PBS before detached from plates with ice-cold RIPA Lysis and Extraction Buffer (Thermo Fisher Scientific) which was supplemented with protease and phosphatase inhibitors. The resulting cell suspensions were transferred to pre-chilled microcentrifuge tubes, incubated on ice for 20 min with intermittent mixing and then centrifuged at 12,000 rpm for 20 min at 4° C. The supernatants were then aspirated slowly and transferred into new tubes kept on ice. The protein concentration in the samples was determined using BCA kit (Thermo Fisher Scientific) as per manufacturer's instructions.
For the p62 oligomerization and LC3 lipidation assays, cell lysates were prepared using RIPA buffer supplemented with 2% SDS and benzonase (Sigma). The lysates were then combined with 4× Laemmli protein sample buffer (Bio-Rad), heated at 70° C. for 10 min and subjected to a brief centrifugation of 10-15 seconds.
For p62 oligomerization and LC3 lipidation assays, lysates containing 30 μg of protein and for BRD4 and FKBP12(F36V) degradation assays, lysates containing 20 μg of protein, were loaded slowly into the wells of 4-20% gradient Tris-glycine gels (Bio-Rad). The gels were run at 100V until completion and transferred onto PVDF membranes. Membranes were blocked using 5% milk in TBS-Tween (0.1%) buffer at room temperature for 1 hour. The membranes were incubated with primary antibody in 5% milk-TBST with shaking, overnight at 4° C. The primary antibodies used were: p62 (Novus Biologicals 2C11, H00008878-MO1), LC3A/B (Cell Signalling Technology D3U4C, 12741S), FKBP12 (Abcam ab24373), BRD4 (Cell Signalling Technology E2A7X, 13440S), GAPDH (Cell Signalling Technology D4C6R, 97166S), and β-Actin (Proteintech 66009-1-Ig). Following primary antibody incubation, membranes were washed thrice with TBST 10 min before and after incubation with secondary-HRP conjugated antibody in 5% milk-TBST for 1 hour at room temperature. The secondary antibodies used were: Anti-Mouse IgG HRP Conjugate (Promega W4021B) and Anti-Rabbit IgG HRP Conjugate (Promega W4011). For the p62 oligomerization assay, the total protein levels were assessed using Ponceau staining (Thermo Fisher Scientific) of PVDF membrane as per recommendation by manufacturer's guidelines.
Imaging was acquired using SuperSignal™ West Pico PLUS Chemiluminescent Substrate (Thermo Fisher Scientific) with iBright Invitrogen FL100 imaging system. Band signal intensity, reflective of protein concentrations, were quantified using Invitrogen™ iBright™ Analysis and Image J software.
HeLa cells were treated with compounds for 24 hours to evaluate the effect of these compounds on p62 oligomerisation activity. The resulting changes in levels of p62 oligomers were assessed by Western blotting, as described in experimental procedures. The fold change of p62 oligomer levels induced by compound treatment relative to vehicle control (DMSO) was determined and summarized in Table 8. Specifically, FIGS. 2A-C show Western blot images and their corresponding quantification showing the levels of high molecular weight (100-200 kDa) p62 oligomers by 24 hours compound treatments at listed concentrations, relative to vehicle control (DMSO) in HeLa cells. Protein loading consistencies was assessed by Ponceau staining (not shown).
On the technique in general: A western blot detects proteins with antibodies after separation by electrophoresis.
Regarding `OCCNCc1cccc2c1ccn2Cc1ccccc1` [Compound 1, 2-(((1-benzyl-1H-indol-4-yl)methyl)amino)ethan-1-ol], the “p62 oligomerization (fold change of p62 oligomer levels)” value was “++ (>2-fold change relative to DMSO control)”.
The same measure, in the same setting: next, `OCCNCc1cc(F)cc2c1ccn2Cc1ccc(Cl)cc1` [Compound 45, 2-(((1-(4-chlorobenzyl)-6-fluoro-1H-indol-4-yl)methyl)amino)ethan-1-ol]: “++ (>2-fold change relative to DMSO control)”.
The same measure, in the same setting: next, `OCCNCc1cc(F)cc2c1ccn2Cc1ccc(F)cc1` [Compound 44]: “++ (>2-fold change relative to DMSO control)”.

The test system of the next assay is p62 puncta. As to the kind of experiment: p62 puncta immunocytochemistry imaging in HeLa cells. It is filed as cell-based. The settings on record: 24 hours treatment, relative to vehicle control (DMSO). In a few lines:
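Following 24 h compound or DMSO treatment, HeLa cells were fixed and immunostained for p62 with DAPI counterstain. Puncta counted by imaging on EVOS M7000 (20× objective) or Operetta CLS (63× water objective); reported as fold change versus DMSO.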
As to `OCCNCc1cccc2c1ccn2Cc1ccccc1` [Compound 1, 2-(((1-benzyl-1H-indol-4-yl)methyl)amino)ethan-1-ol], the “p62 puncta (fold change of p62 puncta levels)” value is reported as “+ (<2-fold change in p62 puncta levels relative to DMSO control)”.
Still for that read-out and setting: the entry for `OCCNCc1cc(F)cc2c1ccn2Cc1ccc(Cl)cc1` [Compound 45, 2-(((1-(4-chlorobenzyl)-6-fluoro-1H-indol-4-yl)methyl)amino)ethan-1-ol] is “++ (>2-fold change in p62 puncta levels relative to DMSO control)”.
The same measure, in the same setting: the entry for `OCCNCc1cc(F)cc2c1ccn2Cc1ccc(F)cc1` [Compound 44] is “++ (>2-fold change in p62 puncta levels relative to DMSO control)”.
